From patent US20120302573A1, “METHODS OF INHIBITING PRO MATRIX METALLOPROTEINASE ACTIVATION” (priority 2011, published 2012)
Where a name gives a salt, the structure may show the parent alone.

How the values were obtained:
[1] = target: T1, proMMP9(20-445;ΔFnII) (SEQ ID NO:6) (Homo sapiens, UniProt P14780, DEL216-390); test: ThermoFluor binding assay with proMMP9(20-445;ΔFnII)
T1 construct: amino acid pairs including: 29-215/391-444, 67-215/391-444, and 20-215/391-445, respectively; start methionine (N); made in house; host or cells: E. coli BL21(DE3) RIL
T1 sequence (P14780 with tags, fused parts or gaps DEL216-390): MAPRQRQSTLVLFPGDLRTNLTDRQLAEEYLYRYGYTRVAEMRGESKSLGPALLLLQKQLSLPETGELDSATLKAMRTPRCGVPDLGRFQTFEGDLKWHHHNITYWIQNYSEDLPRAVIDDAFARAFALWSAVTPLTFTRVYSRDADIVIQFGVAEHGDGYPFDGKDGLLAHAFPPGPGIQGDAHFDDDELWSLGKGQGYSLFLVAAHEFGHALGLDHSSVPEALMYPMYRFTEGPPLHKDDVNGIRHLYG
Description: (§1) The experiments were carried out using instruments available from Johnson & Johnson Pharmaceutical Research & Development, LLC. TF dye used in all experiments was […] (1,8-ANS) (Invitrogen: A-47).
(§2) Columns 12 and 24 were used as DMSO reference and contained no compound. […] Following compound dispense, protein and dye solutions were added to achieve the final assay volume of 3 μL.
(§3) Assay plates were robotically loaded onto a thermostatically controlled PCR-type thermal block and then heated from 40 to 90° C. at a ramp-rate of 1° C./min for all experiments. Fluorescence was measured by continuous illumination with UV light (Hamamatsu LC6) supplied via fiber optics and filtered through a band-pass filter (380-400 nm; >6 OD cutoff). Fluorescence emission of the entire 384-well plate was detected by measuring light intensity using a CCD camera (Sensys, Roper Scientific) filtered to detect 500±25 nm, resulting in simultaneous and independent readings of all 384 wells.
(§4) Thermodynamic parameters necessary for fitting compound binding for each proMMP were estimated by differential scanning calorimetry (DSC) and from ThermoFluor® data. The heat capacity of unfolding for each protein was estimated from the molecular weight and from ThermoFluor® dosing data.
The protein sample preparations included a desalting buffer exchange step via a PD-10 gravity column (GE Healthcare).

[2] = target: T2, proMMP9(67-444;ΔFnII) (SEQ ID NO:5) (Homo sapiens, UniProt P14780, DEL216-390); test: ThermoFluor binding assay with proMMP9(67-444;ΔFnII)
T2 construct: amino acid pairs including: 29-215/391-444, 67-215/391-444, and 20-215/391-445, respectively; start methionine (N); made in house; host or cells: E. coli BL21(DE3) RIL
T2 sequence (P14780 with tags, fused parts or gaps DEL216-390): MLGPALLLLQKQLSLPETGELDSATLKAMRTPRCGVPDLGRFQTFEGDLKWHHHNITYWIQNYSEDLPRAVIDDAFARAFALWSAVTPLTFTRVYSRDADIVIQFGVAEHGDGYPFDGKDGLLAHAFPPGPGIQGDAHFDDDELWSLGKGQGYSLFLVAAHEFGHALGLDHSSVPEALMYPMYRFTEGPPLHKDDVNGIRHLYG
Description: as §1, §2, §3, §4
The protein sample preparations had to include a desalting buffer exchange step via a PD-10 gravity column (GE Healthcare).

[3] = target: T3, proMMP13(1-268) (SEQ ID NO:7) (Homo sapiens, UniProt P45452); test: ThermoFluor binding assay with proMMP13(1-268)
T3 construct: 6x-histidine tag (C); made in house; host or cells: HEK293
Description: The ThermoFluor® (TF) assay is a 384-well plate-based binding assay that measures thermal stability of proteins (Biomol Screen 2001, 6, 429-40; Biochemistry 2005, 44, 5258-66). The experiments were carried out using instruments available from Johnson & Johnson Pharmaceutical Research & Development, LLC. TF dye used in all experiments was […] (1,8-ANS) (Invitrogen: A-47).
Compounds were arranged in a pre-dispensed plate (Greiner Bio-one: 781280), wherein compounds were serially diluted in 100% DMSO across 11 columns within a series. Columns 12 and 24 were used as DMSO reference and contained no compound. For multiple compound concentration-response experiments, the compound aliquots ([…]) were robotically predispensed directly into black 384-well polypropylene PCR microplates (Abgene: TF-0384/k) using a Cartesian Hummingbird liquid handler (DigiLab, Holliston, Mass.). Following compound dispense, protein and dye solutions were added to achieve the final assay volume of 3 μL. The assay solutions were overlayed with 1 μL of silicone oil (Fluka, type DC 200: 85411) to prevent evaporation.
as §3, with “wells. A single image with 20-sec exposure time was collected at each temperature, and the sum of the pixel intensity in a given area of the assay plate was recorded vs temperature and fit to standard equations to yield the Tm (J Biomol Screen 2001, 6, 429-40).” for “wells.”
as §4
The proMMP13(1-268) (SEQ ID NO:7) protein sample preparations included a desalting buffer exchange step via a PD-10 gravity column (GE Healthcare). The desalting buffer exchange was performed prior to diluting the protein to the final assay concentration of 3.5 μM. The concentration of proMMP13(1-268) (SEQ ID NO:7) was estimated spectrophotometrically based on a calculated extinction coefficient of ε280=37000 M^−1 cm^−1, a calculated molecular weight of 30.8 kDa, and calculated pI of 5.33. ThermoFluor® reference conditions were defined as follows: 100 μg/mL proMMP13(1-268) (SEQ ID NO:7), 25 μM 1,8-ANS, pH 7.0 Buffer (50 mM HEPES pH 7.0, 100 mM NaCl, 0.001% Tween-20, 2.5 mM MgCl2, 300 μM CaCl2). The thermodynamic parameters for proMMP13(1-268) (SEQ ID NO:7) are as follows: Tm (° C.)=67 (+/−0.1), ΔUH(Tm) (cal mol^−1)=107000(+/−5000), ΔUS(Tm) (cal mol^−1 K^−1)=318, ΔUCp (cal mol^−1 K^−1)=2600.

[4] = target: T4, full-length proMMP9(1-707) activation by catalytic MMP3 (Homo sapiens, UniProt P14780, R574P); test: proMMP9/MMP3 P126 Activation Assay; assay type: biochemical; parameters: made in house; host or cells: E. coli (MMP3); details: proMMP9 from HEK293 cells
Description: The assay buffer employed was 50 mM Hepes, pH 7.5, 10 mM CaCl2, 0.05% Brij-35. DMSO was included at a final concentration of 2%, arising from the test compound addition. […] The reaction volume was 50 μL. […] Initial velocities were plotted by use of a four-parameter logistics equation (GraphPad Prism® software) for determination of IC50.

[5] = target: T4, full-length proMMP9(1-707) activation by catalytic MMP3; test: ProMMP9/MMP3 DQ Gelatin Activation Assay;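 also: readout is fluorescence of quenched fluorescein gelatin cut by activated MMP9, 30 min activation at 37 °C, inhibition relative to DMSO-only controls with EDTA as blank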; assay type: biochemical; parameters: made in house; host or cells: COS-1 (proMMP9); E. coli (MMP3); details: proMMP9 from COS-1 cells; read-out: ProMMP9/MMP3 DQ gel, IC50
Description: Compounds were assessed for inhibition of proMMP9 activation by catalytic MMP3 using a quenched fluorescein gelatin substrate (DQ gelatin, Invitrogen D12054) that fluoresces upon cleavage by activated MMP9. The assay buffer employed was 50 mM Hepes, pH 7.5, 10 mM CaCl2, 0.05% Brij-35. DMSO was included at a final concentration of 0.2%, arising from the test compound addition. […] Test compounds in DMSO were diluted 250-fold in assay buffer at 4× the final concentration. The reaction volume was 12 μL, and all reactions were conducted in triplicate. […] The plate was sealed and incubated for 30 min at 37° C. […] Immediately following the 30 min incubation, 4 μL of 40 μg/ml DQ gelatin substrate was added (freshly diluted in assay buffer), and incubated for 10 min at room temperature. […] Reactivity of residual MMP3 towards DQ gelatin was minimal under these conditions. Percent inhibition of test compounds were determined from suitable positive (DMSO only in assay buffer) and negative (EDTA added prior to reaction initiation) controls. Plots of % inhibition vs. test compound concentration were fit to a four-parameter logistics equation (GraphPad Prism® software) for determination of IC50.

T4 sequence (P14780 20-707 R574P): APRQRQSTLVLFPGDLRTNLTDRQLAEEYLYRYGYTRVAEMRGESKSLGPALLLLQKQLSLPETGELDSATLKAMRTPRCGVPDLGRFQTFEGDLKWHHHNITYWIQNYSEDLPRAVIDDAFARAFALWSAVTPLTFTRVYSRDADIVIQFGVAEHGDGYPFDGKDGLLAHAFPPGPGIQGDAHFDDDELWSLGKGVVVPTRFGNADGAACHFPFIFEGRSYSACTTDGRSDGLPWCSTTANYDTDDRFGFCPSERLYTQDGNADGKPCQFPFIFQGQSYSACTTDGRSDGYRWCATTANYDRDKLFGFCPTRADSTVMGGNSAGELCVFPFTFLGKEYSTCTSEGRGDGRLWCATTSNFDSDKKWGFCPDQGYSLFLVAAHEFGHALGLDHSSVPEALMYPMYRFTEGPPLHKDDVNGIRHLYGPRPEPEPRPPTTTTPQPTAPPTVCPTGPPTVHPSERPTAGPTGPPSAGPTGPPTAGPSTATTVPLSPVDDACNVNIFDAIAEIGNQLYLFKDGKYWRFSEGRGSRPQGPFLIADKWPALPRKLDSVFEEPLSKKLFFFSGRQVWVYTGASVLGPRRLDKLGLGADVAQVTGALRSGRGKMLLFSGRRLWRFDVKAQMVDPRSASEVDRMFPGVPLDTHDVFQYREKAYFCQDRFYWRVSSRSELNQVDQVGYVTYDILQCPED

SMILES | Kd [1] [µM] | Kd [2] [µM] | Kd [3] [µM] | IC50 [4] [µM] | IC50 [5] [µM]
COc1ccc(F)cc1Nc1nc(-c2sc(NC(C)=O)nc2C)cs1 [Example 6] | 0.907 | 0.156 | 15.1 | 0.65 | –
CC(C)Oc1ccccc1Nc1nc(-c2cccnc2)cs1 [Example 15, (2-Isopropoxy-phenyl)-(4-pyridin-3-yl-thiazol-2-yl)-amine] | > 95 | 43.3 | – | 2.5 | –
COc1ccc(F)cc1Nc1nc(-c2sc(NC(C)=O)nc2C)c(Br)s1 [Example 18, N-[5-Bromo-2-(5-fluoro-2-methoxy-phenylamino)-4′-methyl-[4,5′]bithiazolyl-2′-yl]-acetamide.TFA] | 2.89 | 0.376 | – | 2.6 | –
COc1ccc(F)cc1Nc1nc(-c2ccc3c(c2)ncn3C)cs1 [Example 41, (5-Fluoro-2-methoxy-phenyl)-[4-(1-methyl-1H-benzoimidazol-5-yl)-thiazol-2-yl]-amine] | 1.94 | – | – | 1.9 | –
COc1ccc(F)cc1Nc1nc(-c2c(C)nc(C)n2C)cs1 [Example 42, (5-Fluoro-2-methoxy-phenyl)-[4-(2,3,5-trimethyl-3H-imidazol-4-yl)-thiazol-2-yl]-amine] | 28.8 | – | 5.35 | 5 | –
CCOc1ccccc1Nc1nc(-c2cn3ccccc3n2)cs1 [Example 74, (2-Ethoxy-phenyl)-(4-imidazo[1,2-a]pyridin-2-yl-thiazol-2-yl)-amine] | 7.89 | 66.1 | > 95 | – | 21.1
COc1ccccc1Nc1nc(-c2c[nH]c3ncccc23)cs1 [Example 76, (2-Methoxy-phenyl)-[4-(1H-pyrrolo[2,3-b]pyridin-3-yl)-thiazol-2-yl]-amine] | 27 | 10.8 | 57.1 | – | 16.3
COc1ccc(F)cc1Nc1nc(-c2sc(C)nc2C)c(C)s1 [Example 77, N-(5-fluoro-2-methoxyphenyl)-2′,4′,5-trimethyl-[4,5′-bithiazol]-2-amine.HBr] | > 77 | 20.6 | – | 3.8 | –
COc1ccc(F)cc1Nc1nc(-c2sc(C3CCN(C)CC3)nc2C)cs1 [Example 78, N-(5-fluoro-2-methoxyphenyl)-4′-methyl-2′-(1-methylpiperidin-4-yl)-[4,5′-bithiazol]-2-amine.TFA] | 0.879 | 0.146 | – | 0.13 | –

Now from value to compound:

Kd [1] [µM] | Kd [2] [µM] | Kd [3] [µM] | IC50 [4] [µM] | IC50 [5] [µM] | SMILES
8.68 | 1.29 | 14.1 | 2.5 | – | CC(=O)Nc1nc(C)c(-c2csc(Nc3ccccc3OC(C)C)n2)s1 [Example 1, N-[2-(2-Isopropoxy-phenylamino)-4′-methyl-[4,5′]bithiazolyl-2′-yl]-acetamide]
> 95 | 55.3 | 42.5 | 2.5 | – | Cc1nc(C)c(-c2csc(Nc3ccccc3OC(C)C)n2)s1 [Example 2, (2′,4′-Dimethyl-[4,5′]bithiazolyl-2-yl)-(2-isopropoxy-phenyl)-amine]
3.81 | 1.15 | – | 2 | – | Cc1nc(N)sc1-c1csc(Nc2ccccc2OC(C)C)n1 [Example 3, N^2-(2-Isopropoxy-phenyl)-4′-methyl-[4,5′]bithiazolyl-2,2′-diamine.TFA]
> 95 | 5.49 | 20 | 0.71 | – | COc1ccc(F)cc1Nc1nc(-c2sc(C)nc2C)cs1 [Example 5, (2′,4′-Dimethyl-[4,5′]bithiazolyl-2-yl)-(5-fluoro-2-methoxy-phenyl)-amine.HBr]
> 95 | – | 9.12 | 3.6 | – | Cc1nc(C)c(-c2csc(Nc3ccccc3OC(F)(F)F)n2)s1 [Example 14, (2′,4′-Dimethyl-[4,5′]bithiazolyl-2-yl)-(2-trifluoromethoxy-phenyl)-amine]
2.15 | 0.414 | – | 3.3 | – | COc1ccc(Br)cc1Nc1nc(-c2sc(N)nc2C)cs1 [Example 20, N^2-(5-Bromo-2-methoxy-phenyl)-4′-methyl-[4,5′]bithiazolyl-2,2′-diamine.TFA]
49.9 | – | – | 3.1 | – | COc1ccc(Br)cc1Nc1nc(-c2sc(C)nc2C)cs1 [Example 27, (5-Bromo-2-methoxy-phenyl)-(2′,4′-dimethyl-[4,5′]bithiazolyl-2-yl)-amine.TFA]
47.5 | 45.3 | > 95 | – | 2.1 | COc1ccccc1Nc1nc(-c2sc(C)nc2C)cs1 [Example 64, (2′-4′-Dimethyl-[4,5′]bithiazolyl-2-yl)-(2-methoxy-phenyl)-amine]
25.5 | 15.9 | 18 | – | 17.9 | COc1ccc(OC)c(Nc2nc(-c3c[nH]c4ncccc34)cs2)c1 [Example 73, (2,5-Dimethoxy-phenyl)-[4-(1H-pyrrolo[2,3-b]pyridin-3-yl)-thiazol-2-yl]-amine]
17.9 | 10.1 | 28.9 | – | 17.9 | COc1ccccc1Nc1nc(-c2cnc3cnccn23)cs1 [Example 75, (4-Imidazo[1,2-a]pyrazin-3-yl-thiazol-2-yl)-(2-methoxy-phenyl)-amine]
21.4 | 3.93 | – | 1 | – | COc1ccc(F)cc1Nc1nc(-c2ccc(N3CCN(C4CC4)CC3)nc2)cs1 [Example 79, 4-(6-(4-Cyclopropylpiperazin-1-yl)pyridin-3-yl)-N-(5-fluoro-2-methoxyphenyl)thiazol-2-amine.TFA]
